The results in this text go back to EPA's ToxValDB 9.5 (doi:10.2903/j.efsa.2010.1669).

The test system of series [1] is Aphidius rhopalosiphi. As to the kind of experiment: LR50; higher = less toxic. The settings on record: not reported; mortality.
For series [2], the system named is Tagia sp. The settings on record: acute; duration: 14 days; mortality.
Series [3] relates to Colinus virginianus. The settings on record: for LD50: acute, oral, mortality.
The subject of series [4] is Oncorhynchus mykiss.
Series [5] has as its system Daphnia magna. The settings on record: chronic/long-term; duration: 21 days; reproduction.
The subject of series [6] is Apis mellifera. The settings on record: acute; duration: 48 hours; dermal; mortality.
In series [7] the test system is Rattus norvegicus. The settings on record: for NOAEL: body weight.
In series [8] the test system is Oryctolagus sp. The settings on record: developmental; development.
In series [9] the test system is Canidae. The settings on record: oral, Dog Other, organ weight.

Usually NOAEL stands for the highest tested level that showed no adverse finding.

Values after ≈ are worked out from the molar mass of the structure shown. Some results are limits rather than exact numbers.

Turning to `CCCC(=NOCC)C1=C(O)CC(C2CCCSC2)CC1=O` (stereo unspecified) [Cycloxydim], in series [1], the LR50 was determined as 90.2 g/ha. Also, the LC50 in series [2] is more than 1000 mg/kg; in series [4] (acute, duration: 96 hours, mortality) it was 220 µg/mL (≈ 676 µM). Moreover, the LD50 in [3] (diet) is 497 mg/kg-day; in series [3], more than 2000 mg/kg-day; in [6], more than 100 µg/piece; in [7] (acute, oral, mortality), 3830 mg/kg-day. The NOEC turned out to be 65.4 mg/kg-day in series [3] (reproduction developmental); 21.5 mg/L in [4] (chronic/long-term, duration: 28 days, growth); 62.5 mg/L in series [5]. Also, the no-observed-adverse-effect level (NOAEL) in series [7] (chronic, duration: 18 months) amounted to 7 mg/kg-day; in series [7] (chronic, duration: 24 months), 7 mg/kg-day; in series [7] (reproduction developmental) it was 9.7 mg/kg-day; in [8], 200 mg/kg-day; in [9] (chronic, duration: 1 years), 10 mg/kg-day; in series [9] (subchronic, duration: 3 months) it was 10 mg/kg-day.
